The test system of series [1] is SKBr3 breast cancer cells. The series can be described thus: Growth inhibition, sulforhodamine B assay. Format: cell-based, human. The note with it: Homo sapiens, SK-BR-3, 72 h, average of 3 measurements. Here is the method: Cell culture. The human breast cancer cell lines SKBr3 and MDA-MB-468 were a gift from Dr. Neal Rosen (MSKCC). Cells were maintained in 1:1 mixture of DME:F12 supplemented with 2 mM glutamine, 50 units/mL penicillin, 50 […] and 10% heat inactivated fetal bovine serum (Gemini Bioproducts #100-10b) and incubated at 37° C., 5% CO2. Growth assays. Growth inhibition studies were performed using the sulforhodamine B assay as previously described.^29 In summary, experimental cultures were plated in microtiter plates (Nunc #167008). One column of wells was left without cells to serve as the blank control. Cells were allowed to attach overnight. The following day, growth medium having either drug or DMSO at twice the desired initial concentration was added to the plate in triplicate and was serially diluted at a 1:1 ratio in the microtiter plate. After 72 h of growth, the cell number in treated versus control wells was estimated after treatment with 50% trichloroacetic acid and staining with 0.4% sulforhodamine B in 1% acetic acid. […] Normal human renal proximal tubular epithelial (RPTEC) cells were purchased pre-seeded in 96-well plates (Clonetics, CC-3190). Upon receipt, cells were placed in a humidified incubator at 37° C., 5% CO2 and allowed to equilibrate for 3 h. Media was removed by suction and replaced with fresh media provided by the manufacturer. Cells were then treated with either drugs or DMSO for 72 h and the IC50 values were determined as described above.

The subject of another series is MDA-MB-468 cells. The series can be described thus: Anti-mitotic assay (Tg-3 microtiter immunoassay). The class given is cell-based, human. The note with it: 24 h, concentration dependent increase in Tg-3 luminescence. Here is the method:
Anti-mitotic assay. Black, clear-bottom microtiter 96-well plates (Corning Costar #3603) were used to accommodate experimental cultures. MDA-MB-468 cells were seeded in each well at 8,000 cells per well in growth medium (100 μL), and allowed to attach overnight at 37° C. and 5% CO2. Growth medium (100 μL) with drug or vehicle (DMSO) was gently added to the wells, and the plates were incubated at 37° C. and 5% CO2 for 24 h. Wells were washed with ice-cold TBST (2×200 μL). A house vacuum source attached to an eight-channel aspirator was used to remove the liquid from the 96-well plates. Ice-cold methanol (100 μL) was added to each well, and the plate was placed at 4° C. for 5 min. Methanol was removed by suction and plates were washed with ice-cold TBST (2×200 μL). Plates were further incubated with SuperBlock® blocking buffer (Pierce #37535) (200 μL) for 2 h at RT. The Tg-3 antibody (gift of Dr. Davies, Albert Einstein College of Medicine) diluted 1:200 in SuperBlock® was placed in each well (100 μL) except the control column that was treated with control antibody (Mouse IgM, NeoMarkers, NC-1030-P). After 72 h, wells were washed with ice-cold TBST (2×200 μL). […] Un-reacted antibody was removed by washing the plates with ice-cold TBST (3×200 μL) for 5 min on a shaker. The ECLTM Western Blotting Detection Reagents 1 and 2 in 1:1 mix (100 μL) was placed in each well and the plates were read immediately in an Analyst AD plate reader (Molecular Devices). Luminescence readings were imported into SOFTmax PROR 4.3.1. Anti-mitotic activity was defined as a concentration dependent increase in luminescence readings in compound-treated wells as compared to DMSO only treated wells.

A short description of series [2]: Tumor and plasma concentration in MDA-MB-468 xenografted mice. Format: in vivo. The note with it: 24 hours after intraperitoneal injection. The protocol: (§1) Mice xenografted with MDA-MB-468 human breast cancer tumors were treated by intraperitoneal injection with Compound 5 at a dosage levels of 25, 50, 75, 100 and 150 mg/kg. The concentration of Compound 5 in the tumor 24 hours after administration was determined. […] Compound 5 was further tested for its effects on the pharmacodynamic marker Raf-1 kinase. Hsp90 stabilizes this kinase and maintains it in ready-to-be-activated conformation. Inhibition of Hsp90 leads to disruption of the complex and further ubiquitinylation and degradation of Raf-1 by the proteasome. Thus, Raf-1 degradation in tumors is a functional read-out of Hsp90 inhibition.

A further series relates to Raf-1 kinase. Briefly: Raf-1 protein levels in MDA-MB-468 tumors. Format: in vivo, mice. The note with it: all dosage levels, FIG. 10B. Here is the method: as §1
The next series concerns PI3 kinase. The series can be described thus: PI3 kinase expression in MDA-MB-468 tumors. The class given is in vivo, mice. The note with it: protein unaffected by Hsp90 inhibitors.
A short description of a further series: Solubility in PBS. Format: physicochemical. The note with it: aqueous buffer, acid addition salt form. The protocol: (§2) Growth over 96 h was assessed.
For another series, the system named is H69AR. Briefly: Growth over 96 h in adriamycin-resistant SCLC cells. The note with it: resistant to adriamycin. Format: cell-based. Here is the method:
as §2

In another series the test system is SKI-Chen. The series can be described thus: Growth over 96 h in therapy-resistant SCLC cells. Format: cell-based. The note with it: from a patient who failed every conventional therapy. The protocol: as §2
The subject of series [3] is Hsp90 client proteins (Raf-1, Akt), PARP cleavage. The series can be described thus: Pharmacodynamics in small cell lung tumors. The class given is in vivo.
A further series has as its system small cell lung tumors. Briefly: Tumor growth inhibition in small cell lung cancer model. The class given is in vivo.
For the next series, the system named is U251 glioma cells. The series can be described thus: Clonogenic survival assay, radiosensitization. Format: cell-based, human. Here is the method:
(§3) Colony forming efficiency was determined 10-12 days later and survival curves generated after normalizing for cell killing by Compound 9 alone. The results are summarized in FIG. 11A (Compound 9) and B (Compound 8).

A further series deals with U87 glioma cells. Briefly: Clonogenic survival assay, radiosensitization. Format: cell-based, human. Here is the method: as §3
Series [4] is described as follows: Blood brain barrier penetration.
Another series relates to Hsp90 lung. The series can be described thus: Hsp90 competition assay, lung homogenate.
Another series concerns Hsp90 heart. Briefly: Hsp90 competition assay, heart homogenate.
A further series has as its system Hsp90 SKBr3. Briefly: Hsp90 competition assay, SKBr3 cell lysate. The note with it: read-out: EC50 Hsp90 SKBr3.
Series [5] is described as follows: Plasma and tumor levels in small cell lung cancer model. The note with it: tumor.

A word on the IC50: it is the concentration that inhibits the measured activity by half. As a reminder, the solubility is how much of the substance goes into solution per volume. For orientation: EC50 means the concentration needed to bring the measured effect to its halfway point.

Description for Hsp90 SKBr3: Hsp90 competition assay. Fluorescence polarization measurements were performed on an Analyst AD instrument (Molecular Devices, Sunnyvale, Calif.). […] The assay buffer (HFB) contained 20 mM HEPES (K) pH 7.3, 50 mM KCl, 5 mM MgCl2, 20 mM Na2MoO4, 0.01% NP40. Before each use, 0.1 mg/mL bovine gamma globulin (BGG) (Panvera Corporation, Madison, Wis.) and 2 mM DTT (Fisher Biotech, Fair Lawn, N.J.) were freshly added. GM-BODIPY was synthesized as previously reported^23a and was dissolved in DMSO to form 10 μM solutions. Recombinant Hsp90α was purchased from Stressgen Bioreagents (cat. No. SPP-776), (Victoria, Canada). Cell lysates were prepared rupturing cellular membranes by freezing at −70° C. and dissolving the cellular extract in HFB with added protease and phosphotase inhibitors. […] Saturation curves were recorded in which GM-BODIPY (5 nM) was treated with increasing amounts of cellular lysates.
Description for Hsp90 heart: (§4) Hsp90 competition assay. Fluorescence polarization measurements were performed on an Analyst AD instrument (Molecular Devices, Sunnyvale, Calif.). […] The assay buffer (HFB) contained 20 mM HEPES (K) pH 7.3, 50 mM KCl, 5 mM MgCl2, 20 mM Na2MoO4, 0.01% NP40. Before each use, 0.1 mg/mL bovine gamma globulin (BGG) (Panvera Corporation, Madison, Wis.) and 2 mM DTT (Fisher Biotech, Fair Lawn, N.J.) were freshly added. […] Cell lysates were prepared rupturing cellular membranes by freezing at −70° C. and dissolving the cellular extract in HFB with added protease and phosphotase inhibitors. Organs were harvested from a healthy mouse and homogenized in HFB. Saturation curves were recorded in which GM-BODIPY (5 nM) was treated with increasing amounts of cellular lysates.
Description for Hsp90 lung: as §4

In [1], `CC(C)NCCCn1c(Sc2cc3c(cc2Br)OCO3)nc2c(N)ncnc21` [Example 5, 8-(6-Bromo-benzo[1,3]dioxol-5-ylsulfanyl)-9-(3-isopropylamino-propyl)adenine] came in with an IC50 of 142 ± 22 nM. Also, in the series on MDA-MB-468 cells, the Anti-mitotic result is on record as “Yes”. For the same molecule, the detection in plasma result in series [2] is “could not be detected”. Besides, the “Raf-1 levels (% control)” value with Raf-1 kinase is “substantial decrease”. In addition, the “expression of PI3 kinase” value in the series on PI3 kinase is listed as “no change in expression”.

Molecule `CC(C)NCCCn1c(Sc2cc3c(cc2I)OCO3)nc2c(N)ncnc21` [Example 9, 8-(6-Iodo-benzo[1,3]dioxol-5-ylsulfanyl)-9-(3-isopropylamino-propyl)adenine] showed an IC50 in series [1] of 50 ± 5 nM. Moreover, the Anti-mitotic entry in the series with MDA-MB-468 cells is “Yes”. Further, the solubility in “Solubility in PBS” is more than 5 mM. The “activity in resistant SCLC cell line” value in the series on H69AR and in the series with SKI-Chen was “retains its activity” throughout. Further, the “apoptosis of the tumor (PARP cleavage)” value in series [3] (FIG. 9C) is reported as “induces significant apoptosis”. Also, in series [3] (one administered dose), the “Raf-1 and Akt in tumor” value is reported as “efficiently degraded or inactivated”. Also, the tumor growth entry with small cell lung tumors (comparable to 17AAG, FIG. 9D) was “efficiently inhibited the growth”. Also, the “toxicity to the host” value in the series on small cell lung tumors (in vivo) is listed as “without toxicity”. Besides, the results for the “surviving fraction after compound treatment only” value with U251 glioma cells (U251 cells) and in the series on U87 glioma cells were 0.86 and 0.68, respectively. Also, the dose enhancement factors in the series with U251 glioma cells (range across U251 and U87, 16 h exposure before X rays) was 1.4-1.6. Besides, the “crossing of the blood brain barrier” value in series [4] is on record as “ability to cross the blood brain barrier”. The Lung/SKBr3 in the series with Hsp90 lung (ratio of EC50 Hsp90 values) is recorded as 48. In addition, the EC50 is 2400 ± 240 nM in the series with Hsp90 lung (read-out: EC50 Hsp90 lung, normal tissue); 6.9 ± 0.15 µM in the series with Hsp90 heart (read-out: EC50 Hsp90 heart, normal tissue); 50.4 ± 4 nM in the series with Hsp90 SKBr3. For the same molecule, the Heart/SKBr3 in the series with Hsp90 heart (ratio of EC50 Hsp90 values) came out at 140. The “retention in tumors at pharmacologic doses” value in series [5] was “more than 36 h”.

These data come from patent publication US10167285B2, “Small-molecule HSP90 inhibitors” (Memorial Sloan Kettering Cancer Center, priority 2005, dated 2019).
